Results on seven compounds are retold here after patent US10669310B2, “Peptide for cancer treatment and pharmaceutical composition containing same” (TOKUSHIMA UNIVERSITY, priority 2016, dated 2020).

The format of data set [1] is in vivo. As to conditions: i.p. every day or every four days, 28 days. As for the experimental part: KPL-3C cell suspensions (1×10^7 cells/mouse) were mixed with an equal volume of Matrigel (BD) and injected (200 μL in total) into the mammary fat pads of 6-week-old female BALB/c nude mice (Charles River Laboratories, Tokyo, Japan). The mice were housed in a pathogen-free isolation facility with a twelve-hour light/dark cycle and were fed solid rodent chow and water ad libitum. The tumors developed over several days and reached sizes of approximately 100 mm^3 [calculated as ½×(width×length^2)]. The mice were randomized into the following eleven treatment groups (five heads per group):
E2 was administered via application of a solution to the neck skin, and regarding the other treatments, administration was performed via intraperitoneal injection unless other administration methods are stated. The tumor volume was measured with calipers for 28 days, and then the mice were subjected to scheduled sacrifice to remove tumors. All the experiments were performed in accordance with the guidelines of the animal facility at Tokushima University.

The subject of data set [2] is MCF-7 cells. It is filed as cell-based, human. As to conditions: for duration of significant cell growth inhibitory effects: 1 μM, E2-dependent growth of MCF-7. As for the experimental part: (§1) Human breast cancer cell line MCF-7 and mammary epithelial cell line MCF-10A were purchased from American Type Culture Collection (ATCC, Manassas, Va., USA). Breast cancer cell line KPL-3C (J. Kurebayashi, et al., Br. J. Cancer 74, 200-207 (1996)) was kindly provided by Dr. Junichi Kurebayashi (Kawasaki Medical School). All cell lines were monolayer cultured in an appropriate medium supplemented with 10% FBS. The cells were maintained at 37° C. under humidified atmosphere containing 5% CO2.
(§2) In each experiment, the respective cells were seeded in a 48-well plate (2×10^4 cells/mL), a 6-well plate (3×10^5 cells/mL), or a 10-cm dish (2×10^6 cells/10 mL). MCF-7 cells were seeded in MEM (Thermo Fisher Scientific) supplemented with 10% FBS (Nichirei Biosciences Inc., Tokyo, Japan), 1% Antibiotic/Antimycotic solution (Thermo Fisher Scientific, Waltham, Mass., USA), 0.1 mM NEAA (Thermo Fisher Scientific), 1 mM sodium pyruvate (Thermo Fisher Scientific), and 10 μg/mL insulin (Sigma, St. Louis, Mo., USA). KPL-3C cells were seeded in RPMI (Thermo Fisher Scientific) supplemented with 10% FBS and 1% Antibiotic/Antimycotic solution. MCF-10A cells were seeded in MEBM (Lonza) supplemented with a Single Quots kit (BPE, hydrocortisone, hEGF, insulin, gentamycin/amphoterin-B) (Lonza, Walkersville, Md., USA) and 100 ng/mL cholera toxin. For 17β-estradiol (E2) (Sigma) stimulation, the media for MCF-7 and KPL-3C were changed to phenol red-free DMEM/F12 (Thermo Fisher Scientific) supplemented with 10% FBS, 1% Antibiotic/Antimycotic solution, 0.1 mM NEAA, 1 mM sodium pyruvate, and 10 μg/mL insulin on the day after seeding. Twenty-four hours later, the cells were treated with 10 nM E2 and a peptide (for example, 11R-ERAP or a stapled ERAP), or with 10 nM E2 alone.
When carrying out treatment with tamoxifen (Sigma) or fulvestrant (LKT laboratories, St. Paul, Minn., USA), cells were treated with 10 nM tamoxifen or 2 μM fulvestrant simultaneously with the above-mentioned treatment with E2 and a peptide or with E2 alone.
Cell growth assays on MCF-7, KPL-3C, and MCF-10A were carried out as described previously using a Cell Counting Kit-8 (CCK-8) (Dojindo, Kumamoto, Japan) (T. Yoshimaru, et al., Nat. Commun. 4, 2443 (2013)). The data are shown by mean±SE of three independent experiments.

Data set [3] can be described thus: In vitro blood-brain barrier permeability test. It is filed as in vitro ADME. As for the experimental part: BIG3 is expressed in the brain though expression is weak (Kim, J. W. et al., Cancer Sci. 100, 1468-1478 (2009)). Then, since there were concerns of side effects due to the transfer of stapled ERAP to the brain, blood-brain-barrier permeability test was carried out on stapled ERAP. Blood-brain-barrier permeability of stapled ERAP (No. 12) was examined by placing stapled ERAP (No. 12) to the inner side (vascular cavity side) of the insert of a blood-brain barrier permeability kit, and measuring the concentration of stapled ERAP (No. 12) that passed through a filter specialized for intracerebral transferability assay and leaked into the well (cerebral parenchyma side) of the plate in 30 minutes. The permeability coefficient (Papp) at this time was calculated (2 or less: very low permeability; 2 to 10: low permeability; 10 to 20: high permeability; and 20 or higher: very high permeability).

The target of data set [4] is T1, BIG3-PHB2 interaction (Homo sapiens, UniProt Q99623).
T1 construct: complex formation between the endogenous BIG3 and PHB2 in ERα-positive breast cancer cell line MCF-7; endogenous in cells; host or cells: MCF-7
Description: Co-immunoprecipitation with anti-BIG3 antibody in MCF-7 cells. It is filed as cell-based. As to conditions: MCF-7, 1 μM, 24 hours after treatment. As for the experimental part: Immunoblot analyses were performed as described previously (T. Yoshimaru, et al., Nat. Commun. 4, 2443 (2013)). After performing SDS-PAGE, the membranes blotted with proteins were blocked with 4% BlockAce solution (Dainippon Pharmaceutical, Osaka, Japan) for three hours and then incubated with antibodies against the following proteins: BIG3 (1:1,000) (T. Yoshimaru, et al., Nat. Commun. 4, 2443 (2013)); PHB2 (1:1,000) (Abeam, Cambridge, UK); Akt, phosphorylated Akt (S473) (587F11, 1:1,000); p44/42 MAPK, phosphorylated p44/42 MAPK (T202/Y204) (1:1,000); α/β-tubulin (1:1,000) (Cell Signaling Technology, Danvers, Mass., USA); and LMNB1 (1:100) (Sigma). After incubation with an HRP-labeled secondary antibody (anti-mouse IgG-HRP, 1:5,000; anti-rat IgG-HRP; 1:5,000; or anti-rabbit IgG-HRP, 1:1,000) (Santa Cruz Biotechnology, Dallas, Tex., USA) for one hour, the blots were developed with an Enhanced Chemiluminescence (ECL) system (GE Healthcare, Buckinghamshire, UK) and scanned using an Image Reader LAS-3000 mini (Fujifilm, Tokyo, Japan). All the experiments were performed at least in triplicate.
Immunoprecipitation analysis was performed as described previously (T. Yoshimaru, et al., Nat. Commun. 4, 2443 (2013)). Cell lysates were pre-cleared with normal IgG and rec-Protein G Sepharose 4B (Thermo Fisher Scientific) at 4° C. for three hours. Then, the supernatants were incubated with 5 μg of an antibody against BIG3 or an antibody against PHB2 at 4° C. for twelve hours. Next, the antigen-antibody complexes were precipitated using rec-Protein G Sepharose 4B at 4° C. for one hour. The immunoprecipitated protein complexes were washed several times with a lysis buffer. Then, SDS-PAGE and immunoblot analyses were carried out as described above.

Data set [5] has as its system MCF-10A cells. Briefly: Cell growth (MTT) assay, MCF-10A cells. As to conditions: normal mammary epithelial cells, ERα-negative and BIG3-negative. It is filed as cell-based, human. As for the experimental part:
as §1
as §2, with “For 17β-estradiol (E2) (Sigma) stimulation, the media for MCF-7 and KPL-3C were changed to phenol red-free DMEM/F12 (Thermo Fisher Scientific) supplemented with 10% FBS, 1% Antibiotic/Antimycotic solution, 0.1 mM NEAA, 1 mM sodium pyruvate, and 10 μg/mL insulin on the day after seeding. Twenty-four hours later, the cells were treated with 10 nM E2 and a peptide (for example, 11R-ERAP or a stapled ERAP), or with 10 nM E2 alone.” left out

Like-named read-outs stand apart in the source and are kept apart here. *1 amine or outer side, *2 acyl side, *3 side chain or, on linkers, in order; H or OH if unused. Where a SMILES comes first, the peptide text is derived from it. Bridges are numbered along the chain shown (N, C = ends). [ ]: non-standard residue; d: D form. NH(CH2)4NH = C(CCN[*:2])CN[*:1] Some results are limits rather than exact numbers.

T1 sequence (Q99623 2-299 limits assumed): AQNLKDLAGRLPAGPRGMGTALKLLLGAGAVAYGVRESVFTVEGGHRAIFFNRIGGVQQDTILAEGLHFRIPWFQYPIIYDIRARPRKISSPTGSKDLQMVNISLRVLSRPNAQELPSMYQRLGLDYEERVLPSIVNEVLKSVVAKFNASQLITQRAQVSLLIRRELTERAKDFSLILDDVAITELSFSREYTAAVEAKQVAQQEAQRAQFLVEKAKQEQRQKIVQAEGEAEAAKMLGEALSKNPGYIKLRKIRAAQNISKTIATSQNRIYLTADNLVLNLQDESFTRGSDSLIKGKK

By IC50 is commonly meant the concentration that gives 50% inhibition. A higher IC50 goes with weaker potency in that assay. `CSCC[C@H](NC(=O)[C@H](CCC(N)=O)NC(=O)CNC(=O)CNC(=O)CNC(=O)[C@H](CCCNC(=N)N)NC(=O)[C@H](CCCNC(=N)N)NC(=O)[C@H](CCCNC(=N)N)NC(=O)[C@H](CCCNC(=N)N)NC(=O)[C@H](CCCNC(=N)N)NC(=O)[C@H](CCCNC(=N)N)NC(=O)[C@H](CCCNC(=N)N)NC(=O)[C@H](CCCNC(=N)N)NC(=O)[C@H](CCCNC(=N)N)NC(=O)[C@H](CCCNC(=N)N)NC(=O)[C@@H](N)CCCNC(=N)N)C(=O)N[C@@H](CC(C)C)C(=O)N[C@@H](CO)C(=O)N[C@@H](CC(=O)O)C(=O)N[C@@H](CC(C)C)C(=O)N[C@H](C(=O)N[C@@H](CC(C)C)C(=O)N[C@@H](CCC(N)=O)C(=O)N[C@@H](CC(C)C)C(=O)N[C@@H](CCCNC(=N)N)C(=O)N[C@@H](CCC(N)=O)C(=O)N[C@@H](CCCNC(=N)N)C(=O)O)[C@@H](C)O` [11R-ERAP, 11R-GGG-QMLSDLTLQLRQR, reference compound] (H-RRRRRRRRRRRGGGQMLSDLTLQLRQR-OH; N-terminus and C-terminus assumed): the “toxicity, body weight” value in data set [1] is given as “No toxicity or significant body weight decrease”. Moreover, in data set [2], the “inhibition rate of E2-dependent growth” value was 45%. In addition, the 50% inhibitory concentration (IC50) in data set [2] (96 h) turned out to be 7.97 µM.
Regarding “QMLSDLTLQLRQR (PHB2-binding peptide derived from BIG3) [ERAP, reference compound]”, in data set [2], the “effect on E2-dependent MCF-7 cell growth” value was “did not show effects”.
On to `CSCC[C@H](NC(=O)[C@@H](N)CCC(N)=O)C(=O)N[C@@H](CC(C)C)C(=O)N[C@@H](CO)C(=O)N[C@@H](CC(=O)O)C(=O)N[C@@H](CC(C)C)C(=O)N[C@H](C(=O)N[C@@H](CC(C)C)C(=O)N[C@@H](CCC(N)=O)C(=O)N[C@@H](CC(C)C)C(=O)N[C@@H](CCCNC(=N)N)C(=O)N[C@@H](CCC(N)=O)C(=O)N[C@@H](CCCNC(=N)N)C(=O)N[C@@H](CCCNC(=N)N)C(=O)N[C@@H](CCCNC(=N)N)C(=O)N[C@@H](CCCNC(=N)N)C(=O)N[C@@H](CCCNC(=N)N)C(=O)N[C@@H](CCCNC(=N)N)C(=O)N[C@@H](CCCNC(=N)N)C(=O)N[C@@H](CCCNC(=N)N)C(=O)N[C@@H](CCCNC(=N)N)C(=O)O)[C@@H](C)O` [QMLSDLTLQLRQR-8R] (H-QMLSDLTLQLRQRRRRRRRRR-OH; N-terminus and C-terminus assumed), for which, in data set [2], the IC50 came to 7.78 µM.
What is called Papp is the rate of passage across a membrane or cell layer, normalised by area and donor concentration. `CSCC[C@H](NC(=O)[C@H](CCC(N)=O)NC(C)=O)C(=O)N[C@H]1CCC(=O)NCCCCNC(=O)CC[C@@H](C(=O)N[C@@H](CC(C)C)C(=O)N[C@@H](CCC(N)=O)C(=O)N[C@@H](CC(C)C)C(=O)N[C@@H](CCCNC(=N)N)C(=O)N[C@@H](CCC(N)=O)C(=O)N[C@@H](CCCNC(=N)N)C(N)=O)NC(=O)[C@H](CC(C)C)NC(=O)[C@H](CC(=O)O)NC(=O)[C@H](CO)NC1=O` [stapled ERAP No. 12]: in data set [1], the “toxicity, body weight” value is reported as “No toxicity or significant body weight decrease”. In data set [2] (96 h), this compound registered a concentration for half-maximal inhibition (IC50) of 0.59 µM. Also, the apparent permeability (Papp) at 30 min, 30 μM in data set [3] (30 μM) was 0.177 ×10⁻⁶ cm/s. In data set [3] (30 minutes, 2 or less: very low permeability, read-out: blood-brain barrier permeability coefficient (Papp)), the Papp at 30 min was at most 2 ×10⁻⁶ cm/s. Moreover, the recovery at 30 minutes, 10 μM in data set [3] (not told, 10 μM, read-out: Recovery Rate) amounted to 0%. Moreover, in data set [3] (not told, 30 μM, read-out: Recovery Rate), the recovery at 30 minutes, 30 μM came to 0.01%.
For the compound `CSCC[C@@H](NC(=O)[C@H]1CCC(=O)NCCCCNC(=O)CC[C@@H](NC(C)=O)C(=O)N[C@H](CC(C)C)C(=O)N[C@H](CC(=O)O)C(=O)N[C@H](CO)C(=O)N1)C(=O)N[C@H](CCC(N)=O)C(N)=O` [shRI stapled ERAP No. 12] (Ac-[dE][dL][dD][dS][dE][dM][dQ]-NH2; linker 1-5 via NH(CH2)4NH; N-terminus and C-terminus assumed), the “duration of significant cell growth inhibitory effects” value in data set [2] is given as “seven”. In data set [2] (96 h), the IC50 is 0.53 µM. Besides, in data set [4], the “inhibition of endogenous BIG3-PHB2 complex formation” value is “inhibited endogenous BIG3-PHB2 complex formation”.
As for `CSCC[C@@H](NC(=O)[C@@H](CCC(N)=O)NC(C)=O)C(=O)N[C@@H]1CCC(=O)NCCCCNC(=O)CC[C@H](C(=O)N[C@H](CC(C)C)C(=O)N[C@H](CCC(N)=O)C(=O)N[C@H](CC(C)C)C(=O)N[C@H](CCCNC(=N)N)C(=O)N[C@H](CCC(N)=O)C(=O)N[C@H](CCCNC(=N)N)C(N)=O)NC(=O)[C@@H](CC(C)C)NC(=O)[C@@H](CC(=O)O)NC(=O)[C@@H](CO)NC1=O` [stapled-D-ERAP No. 12], in data set [2], the “duration of significant cell growth inhibitory effects” value is recorded as “seven”. In addition, in data set [2] (96 h), half-maximal inhibition (IC50) required 0.44 µM. For the same compound, the “inhibition of endogenous BIG3-PHB2 complex formation” value in data set [4] is recorded as “inhibited endogenous BIG3-PHB2 complex formation”. For the same compound, the “effect on MCF-10A cell growth” value in data set [5] was “not inhibited”.
The compound `CSCC[C@H](NC(=O)[C@@H](N)CCC(N)=O)C(=O)N[C@@H](CC(C)C)C(=O)N[C@@H](CO)C(=O)N[C@@H](CC(=O)O)C(=O)N[C@@H](CC(C)C)C(=O)N[C@H](C(=O)N[C@@H](CC(C)C)C(=O)N[C@@H](CCC(N)=O)C(=O)N[C@@H](CC(C)C)C(=O)N[C@@H](CCCNC(=N)N)C(=O)N[C@@H](CCCNC(=N)N)C(=O)N[C@@H](CCCNC(=N)N)C(=O)N[C@@H](CCCNC(=N)N)C(=O)N[C@@H](CCCNC(=N)N)C(=O)N[C@@H](CCCNC(=N)N)C(=O)N[C@@H](CCCNC(=N)N)C(=O)N[C@@H](CCCNC(=N)N)C(=O)O)[C@@H](C)O` [QMLSDLTLQL-8R] (H-QMLSDLTLQLRRRRRRRR-OH; N-terminus and C-terminus assumed) yielded an IC50 in data set [2] of 7.98 µM. This counts as single-digit micromolar.
